According to patent EP4740948A1 (Dong Wha Pharm. Co., Ltd., priority 2023, dated 2025):

Legend:
EZH1 = EZH1 (Homo sapiens, UniProt Q92800); experiment: AlphaLISA enzyme activity inhibition, EZH1; assay type: biochemical
Procedure, shortened: (§1)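 Enzyme inhibition rate was calculated relative to DMSO from AlphaLISA signal, with acceptor beads added after a 2 h methylation reaction and donor beads 1 h later. Each enzyme, EZH1 or EZH2, was pre-mixed with compound (final 5 nM or 10 nM) in Tris buffer pH 8.0 before histone H3 peptide and SAM initiated the reaction.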

EZH2 = EZH2 (Homo sapiens, UniProt Q15910); experiment: AlphaLISA enzyme activity inhibition, EZH2; assay type: biochemical
EZH2, sequence (Q15910 whole entry, species assumed): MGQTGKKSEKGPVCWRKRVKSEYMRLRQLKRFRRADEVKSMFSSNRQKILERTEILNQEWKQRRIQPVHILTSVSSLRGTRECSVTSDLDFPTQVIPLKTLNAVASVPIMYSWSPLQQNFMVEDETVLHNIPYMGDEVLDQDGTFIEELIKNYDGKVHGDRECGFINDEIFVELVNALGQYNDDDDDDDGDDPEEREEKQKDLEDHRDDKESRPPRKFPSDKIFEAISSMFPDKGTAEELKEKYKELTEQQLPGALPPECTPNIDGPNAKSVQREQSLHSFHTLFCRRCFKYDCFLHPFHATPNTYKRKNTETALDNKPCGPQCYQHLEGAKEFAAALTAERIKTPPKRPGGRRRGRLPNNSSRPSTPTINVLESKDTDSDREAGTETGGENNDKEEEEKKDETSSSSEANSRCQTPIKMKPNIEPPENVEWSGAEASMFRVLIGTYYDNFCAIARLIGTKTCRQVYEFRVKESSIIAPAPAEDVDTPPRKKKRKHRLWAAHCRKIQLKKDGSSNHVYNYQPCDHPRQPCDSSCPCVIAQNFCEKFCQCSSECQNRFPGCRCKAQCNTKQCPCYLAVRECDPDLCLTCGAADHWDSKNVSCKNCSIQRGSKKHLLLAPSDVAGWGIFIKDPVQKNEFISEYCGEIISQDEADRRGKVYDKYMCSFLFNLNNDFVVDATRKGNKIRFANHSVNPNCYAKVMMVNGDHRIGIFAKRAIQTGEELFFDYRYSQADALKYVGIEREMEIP
EZH2, sequence (O75530 whole entry partner, species assumed): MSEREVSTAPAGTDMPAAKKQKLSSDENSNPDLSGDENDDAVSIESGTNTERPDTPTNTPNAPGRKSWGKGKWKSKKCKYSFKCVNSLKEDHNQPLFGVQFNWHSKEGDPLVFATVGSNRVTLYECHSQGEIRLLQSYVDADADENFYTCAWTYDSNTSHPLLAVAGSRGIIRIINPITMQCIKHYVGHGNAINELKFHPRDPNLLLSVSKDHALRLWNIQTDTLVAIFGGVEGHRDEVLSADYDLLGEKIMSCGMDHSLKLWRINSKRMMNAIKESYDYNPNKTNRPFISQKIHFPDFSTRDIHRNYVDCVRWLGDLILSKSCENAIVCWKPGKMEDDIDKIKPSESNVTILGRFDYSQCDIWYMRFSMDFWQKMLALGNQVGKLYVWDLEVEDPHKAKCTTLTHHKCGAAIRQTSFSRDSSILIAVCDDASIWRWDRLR
EZH2, sequence (Q15022 whole entry partner, species assumed): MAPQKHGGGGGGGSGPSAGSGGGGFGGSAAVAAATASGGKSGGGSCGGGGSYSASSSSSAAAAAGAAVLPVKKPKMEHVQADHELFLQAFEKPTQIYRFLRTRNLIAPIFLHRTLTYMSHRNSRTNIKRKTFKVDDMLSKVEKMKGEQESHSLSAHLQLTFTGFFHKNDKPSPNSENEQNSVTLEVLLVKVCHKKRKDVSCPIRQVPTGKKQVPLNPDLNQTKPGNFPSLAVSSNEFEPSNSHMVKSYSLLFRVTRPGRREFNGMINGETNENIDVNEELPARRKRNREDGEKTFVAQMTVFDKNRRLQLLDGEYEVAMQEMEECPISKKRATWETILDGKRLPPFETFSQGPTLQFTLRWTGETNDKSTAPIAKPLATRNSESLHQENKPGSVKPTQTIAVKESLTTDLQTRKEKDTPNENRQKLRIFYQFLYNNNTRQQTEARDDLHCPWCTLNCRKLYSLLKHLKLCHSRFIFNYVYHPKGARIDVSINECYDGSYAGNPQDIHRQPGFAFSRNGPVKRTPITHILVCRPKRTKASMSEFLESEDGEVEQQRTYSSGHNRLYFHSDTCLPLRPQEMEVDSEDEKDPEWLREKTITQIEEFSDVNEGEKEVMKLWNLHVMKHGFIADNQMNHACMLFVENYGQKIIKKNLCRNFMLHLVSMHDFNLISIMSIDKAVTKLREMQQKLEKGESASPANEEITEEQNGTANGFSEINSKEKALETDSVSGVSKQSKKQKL
Procedure, shortened: as §1

Lovo cells = experiment: Cancer cell proliferation inhibition (Cell Counting Kit-8), colorectal cancer cell line; assay type: cell-based; details: 1000 nM, cultured seven to 11 days; for inhibition at 1 µM: Homo sapiens, LoVo, 264 h, read-out: % inhibition rate LoVo
Procedure, shortened: (§2)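 Percent inhibition, calculated as {1−(test group/control group)} × 100, comes from Cell Counting Kit-8 measurement. Treatment was 1000 nM test substance for seven to 11 days on cells plated at 100 to 1,000 per well in serum-containing medium.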

G401 cells = experiment: Cancer cell proliferation inhibition (Cell Counting Kit-8), rhabdoid tumor cell line; assay type: cell-based; details: 1000 nM, cultured seven to 11 days; for % inhibition rate G401: 1 µM
Procedure, shortened: (§3)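 Single 1000 nM dose of test substance, applied to cells seeded at 100–1,000 per well in 10% FBS medium, then culture for seven to 11 days. CCK-8 read-out; inhibition rate expressed as percent relative to untreated control.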

MKN-45 cells = experiment: Cancer cell proliferation inhibition (Cell Counting Kit-8), gastric cancer cell line; assay type: cell-based; details: 1000 nM, cultured seven to 11 days; for inhibition at 1 µM: Homo sapiens, MKN-45, 264 h, read-out: % inhibition rate MKN -45
Procedure, shortened: as §3

SW-13 cells = experiment: Cancer cell proliferation inhibition (Cell Counting Kit-8), adrenal cancer cell line; assay type: cell-based; details: 1000 nM, cultured seven to 11 days; for inhibition at 1 µM: Homo sapiens, SW13, 264 h, read-out: % inhibition rate SW-13
Procedure, shortened: as §2

MIA-PaCa-2 cells = experiment: Cancer cell proliferation inhibition (Cell Counting Kit-8), pancreatic cancer cell line; assay type: cell-based; details: 1000 nM, cultured seven to 11 days; for inhibition at 1 µM: Homo sapiens, MIA PaCa-2, 264 h, read-out: % inhibition rate MIA-Paca2
Procedure, shortened: as §2

NCI-H1299 cells = experiment: Cancer cell proliferation inhibition (Cell Counting Kit-8), lung cancer cell line; assay type: cell-based; details: 1000 nM, cultured seven to 11 days; for inhibition at 1 µM: Homo sapiens, NCI-H1299, 264 h, read-out: % inhibition rate NCI-H129 9
Procedure, shortened: as §2

EZH1, sequence (Q92800 whole entry, species assumed): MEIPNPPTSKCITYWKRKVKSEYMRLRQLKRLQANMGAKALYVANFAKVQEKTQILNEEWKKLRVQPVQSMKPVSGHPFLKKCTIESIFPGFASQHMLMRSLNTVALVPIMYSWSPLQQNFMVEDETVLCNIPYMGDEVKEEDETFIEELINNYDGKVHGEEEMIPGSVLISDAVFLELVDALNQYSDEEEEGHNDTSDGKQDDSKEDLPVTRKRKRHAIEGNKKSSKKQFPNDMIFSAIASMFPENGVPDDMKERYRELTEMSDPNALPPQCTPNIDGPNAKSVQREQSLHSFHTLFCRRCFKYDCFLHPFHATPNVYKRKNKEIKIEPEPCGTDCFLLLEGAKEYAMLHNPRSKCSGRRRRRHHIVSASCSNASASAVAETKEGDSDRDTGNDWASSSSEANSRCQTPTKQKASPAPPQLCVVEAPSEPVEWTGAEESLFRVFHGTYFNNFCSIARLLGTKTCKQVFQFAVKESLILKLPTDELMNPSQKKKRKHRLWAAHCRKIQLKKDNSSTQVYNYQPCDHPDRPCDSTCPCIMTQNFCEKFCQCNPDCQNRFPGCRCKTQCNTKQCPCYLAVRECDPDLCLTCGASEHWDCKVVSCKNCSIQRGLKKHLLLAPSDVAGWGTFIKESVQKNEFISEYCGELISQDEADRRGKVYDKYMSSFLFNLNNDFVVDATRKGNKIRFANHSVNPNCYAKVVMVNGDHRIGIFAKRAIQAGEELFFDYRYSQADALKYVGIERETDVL
EZH1, sequence (O75530 whole entry partner, species assumed): as the sequence (O75530 whole entry partner, species assumed) above
EZH1, sequence (Q15022 whole entry partner, species assumed): as the sequence (Q15022 whole entry partner, species assumed) above

| Compound | inhibition at 0.005 µM (EZH1; 5nM test substance) [%] | inhibition at 0.01 µM (EZH1; 10nM test substance) [%] | inhibition at 0.005 µM (EZH2; 5nM test substance) [%] | inhibition at 0.01 µM (EZH2; 10nM test substance) [%] | inhibition at 1 µM (Lovo cells) [%] | % inhibition rate G401 (G401 cells) | inhibition at 1 µM (MKN-45 cells) [%] | inhibition at 1 µM (SW-13 cells) [%] | inhibition at 1 µM (MIA-PaCa-2 cells) [%] | inhibition at 1 µM (NCI-H1299 cells) [%] | further results |
| --- | --- | --- | --- | --- | --- | --- | --- | --- | --- | --- | --- |
| CCN1CCC(C2(C)Oc3c(-c4ccc(N5CCOCC5)nc4)cc(C(=O)NCc4c(SC)cc(C)[nH]c4=O)c(C)c3O2)CC1 (single isomer, unassigned) [Compound 66, 2-(1-ethylpiperidin-4-yl)-2,4-dimethyl-N-((6-methyl-4-(methylthio)-2-oxo-1,2-dihydropyridin-3-yl)methyl)-7-(6-morpholinopyridin-3-yl)benzo[d][1,3]dioxole-5-carboxamide] | 81.3 | 90.9 | 99.3 | 99.6 | 30 to 70 | +++ (+++: ≥70%) | 30 to 70 | ≤ 30 | ≤ 30 | ≤ 30 |  |
| CSc1cc(C)[nH]c(=O)c1CNC(=O)c1cc(-c2cnc(N3CCOCC3)nc2)c2c(c1C)OC(C)(C1CCN(CC(F)(F)F)CC1)O2 (single isomer, unassigned) [Compound 69, 2,4-dimethyl-N-((6-methyl-4-(methylthio)-2-oxo-1,2-dihydropyridin-3-yl)methyl)-7-(2-morpholinopyrimidine-5-yl)-2-(1-(2,2,2-trifluoro)piperidin-4-yl)benzo [d][1,3]dioxole-5-carboxamide] | 71.9 | 87.9 | 98.2 | 99.6 | ≥ 70 | +++ (+++: ≥70%) | 30 to 70 | 30 to 70 | ≤ 30 | ≤ 30 |  |
| CSc1cc(C)[nH]c(=O)c1CNC(=O)c1cc(-c2cnc(N3CCOCC3)nc2)c2c(c1C)OC(C)(C1CCN(CC(F)F)CC1)O2 (single isomer, unassigned) [Compound 71, 2-(1-(2,2-difluoroethyl)piperidin-4-yl)-2,4-dimethyl-N-((6-methyl-4-(methylthio)-2-oxo-1,2-dihydropyridin-3-yl)methyl)-7-(2-morpholinopyrimidin-5-yl)benzo[d][1,3]dioxole-5-carboxamide] | 68.5 | 82.8 | 96.1 | 99.5 | ≥ 70 | +++ (+++: ≥70%) | 30 to 70 | 30 to 70 | ≤ 30 | 30 to 70 |  |
| CCN1CCC(C2(C)Oc3c(-c4cnc(N5CCOCC5)nc4)cc(C(=O)NCc4c(SC)cc(C)[nH]c4=O)c(C)c3O2)CC1 (single isomer, unassigned) [Compound 73, 2-(1-ethylpiperidin-4-yl)-2,4-dimethyl-N-((6-methyl-4-(methylthio)-2-oxo-1,2-dihydropyridin-3-yl)methyl)-7-(2-morpholinopyrimidin-5-yl)benzo[d][1,3]dioxole-5-carboxamide] | 75.7 | 88 | 99.2 | 99.5 | 30 to 70 | +++ (+++: ≥70%) | 30 to 70 | 30 to 70 | ≤ 30 | ≤ 30 |  |
| CCN1CCN(c2ncc(-c3cc(C(=O)NCc4c(SC)cc(C)[nH]c4=O)c(C)c4c3OC(C)(C3CCN(CC(F)(F)F)CC3)O4)cn2)CC1 (single isomer, unassigned) [Compound 76, 7-(2-(4-ethylpiperazin-1-yl)pyrimidin-5-yl)-2,4-dimethyl-N-((6-methyl-4-(methylthio)-2-oxo-1,2-dihydropyridin-3-yl)methyl)-2-(1-(2,2,2-trifluoroethyl)piperidin-4-yl)benzo[d][1,3]dioxole-5-carboxamide] | 79 | 96.2 | 99.5 | 99.6 |  | +++ (+++: ≥70%) | 30 to 70 | 30 to 70 | ≤ 30 | ≤ 30 | % inhibition rate LoVo (Lovo cells; 1 µM): +++ (+++: ≥70%) |
| CCN(C)c1ccc(-c2cc(C(=O)NCc3c(SC)cc(C)[nH]c3=O)c(C)c3c2OC(C)(C2CCN(CC(F)(F)F)CC2)O3)cn1 (single isomer, unassigned) [Compound 79, 7-(2-(ethyl(methyl)amino)pyridin-5-yl)-2,4-dimethyl-N-((6-methyl-4-(methylthio)-2-oxo-1,2-dihydropyridin-3-yl)methyl)-2-(1-(2,2,2-trifluoroethyl)piperidin-4-yl)benzo[d][1,3]dioxole-5-carboxamide] |  |  | 97.1 | 99.5 | ≥ 70 | +++ (+++: ≥70%) | 30 to 70 | 30 to 70 | ≤ 30 | 30 to 70 | Enzyme inhibition % EZH1 (EZH1; 5nM test substance, 0.005 µM): 71.9%; Enzyme inhibition % EZH1 (EZH1; 10nM test substance, 0.01 µM): 87.4% |
| CCN(C)c1ncc(-c2cc(C(=O)NCc3c(SC)cc(C)[nH]c3=O)c(C)c3c2OC(C)(C2CCN(CC(F)F)CC2)O3)cn1 (single isomer, unassigned) [Compound 81, 2-(1-(2,2-difluoroethyl)piperidin-4-yl)-7-(2-(ethyl(methyl)amino)pyrimidin-5-yl)-2,4-dimethyl-N-((6-methyl-4-(methylthio)-2-oxo-1,2-dihydropyridin-3-yl)methyl)benzo[d][1,3]dioxole-5-carboxamide] | 80.4 | 90.8 | 99.2 | 99.8 | ≥ 70 | +++ (+++: ≥70%) | 30 to 70 | 30 to 70 | ≤ 30 | ≤ 30 |  |
| CCN1CCC(C2(C)Oc3c(-c4cnc(N(C)CC)nc4)cc(C(=O)NCc4c(SC)cc(C)[nH]c4=O)c(C)c3O2)CC1 (single isomer, unassigned) [Compound 83, 7-(2-(ethyl(methyl)amino)pyrimidin-5-yl)-2-(1-ethylpiperidin-4-yl)-2,4-dimethyl-N-((6-methyl-4-(methylthio)-2-oxo-1,2-dihydropyridin-3-yl)methyl)benzo[d][1,3]dioxole-5-carboxamide] | 45.3 | 78.8 | 99.2 | 99.4 |  | +++ (+++: ≥70%) | ≤ 30 | 30 to 70 | ≤ 30 | ≤ 30 | % inhibition rate LoVo (Lovo cells; 1 µM): +++ (+++: ≥70%) |
| CCN(C)c1ccc(-c2cc(C(=O)NCc3c(SC)cc(C)[nH]c3=O)c(C)c3c2OC(C)(C2CCN(CC(F)(F)F)CC2)O3)cn1 (single isomer, unassigned) [Compound 86, 7-(6-(ethyl(methyl)amino)pyridin-3-yl)-2,4-dimethyl-N-((6-methyl-4-(methylthio)-2-oxo-1,2-dihydropyridin-3-yl)methyl)-2-(1-(2,2,2-trifluoroethyl)piperidin-4-yl)benzo[d][1,3]dioxole-5-carboxamide] |  |  |  |  |  | +++ (+++: ≥70%) |  |  |  |  | Enzyme inhibition % EZH1 (EZH1; 5nM test substance, 0.005 µM): 42.0%; Enzyme inhibition % EZH1 (EZH1; 10nM test substance, 0.01 µM): 65.9%; Enzyme inhibition % EZH2 (EZH2; 5nM test substance, 0.005 µM): 98.3%; Enzyme inhibition % EZH2 (EZH2; 10nM test substance, 0.01 µM): 99.2%; % inhibition rate LoVo (Lovo cells): +++ (+++: ≥70%); % inhibition rate MKN -45 (MKN-45 cells; 1 µM): ++ (++: more than 30% and less than 70%); % inhibition rate SW-13 (SW-13 cells; 1 µM): + (+: ≤30%); % inhibition rate MIA-Paca2 (MIA-PaCa-2 cells): + (+: ≤30%); % inhibition rate NCI-H129 9 (NCI-H1299 cells; 1 µM): + (+: ≤30%) |
| CCN(C)c1ccc(-c2cc(C(=O)NCc3c(SC)cc(C)[nH]c3=O)c(C)c3c2OC(C)(C2CCN(CC(F)F)CC2)O3)cn1 (single isomer, unassigned) [Compound 88, 2-(1-(2,2-difluoroethyl)piperidin-4-yl)-7-(6-(ethyl(methyl)amino)pyridin-3-yl)-2,4-dimethyl-N-((6-methyl-4-(methylthio)-2-oxo-1,2-dihydropyridin-3-yl)methyl)benzo[d][1,3]dioxole-5-carboxamide] | 45.2 | 62 | 99.5 | 99.9 | ≥ 70 |  | 30 to 70 | 30 to 70 | ≤ 30 | ≤ 30 | inhibition at 1 µM (G401 cells; Homo sapiens, G-401, 264 h, read-out: % inhibition rate G401): ≥ 70% |
